According to patent publication EP1119551B1, “NAPHTHALENECARBOXAMIDES AS TACHYKININ RECEPTOR ANTAGONISTS” (AstraZeneca AB, priority 1998, dated 2000):

What was measured:
NK2 receptor = target: T1, NK2 receptor (Oryctolagus cuniculus, UniProt P79218); assay: Rabbit Pulmonary Artery: NK2 in vitro functional assay (Test D); type: cell-based; details: antagonism of agonist BANK, -log molar apparent dissociation constant KB, read-out: NK2 pKb (Test D) (converted)
T1 construct: The pulmonary arteries are isolated from the rest of the tissues, then rubbed over an intimal surface to remove the endothelium; from tissue; host or cells: rabbit pulmonary artery rings (endothelium removed)
T1 sequence (P79218 1-384): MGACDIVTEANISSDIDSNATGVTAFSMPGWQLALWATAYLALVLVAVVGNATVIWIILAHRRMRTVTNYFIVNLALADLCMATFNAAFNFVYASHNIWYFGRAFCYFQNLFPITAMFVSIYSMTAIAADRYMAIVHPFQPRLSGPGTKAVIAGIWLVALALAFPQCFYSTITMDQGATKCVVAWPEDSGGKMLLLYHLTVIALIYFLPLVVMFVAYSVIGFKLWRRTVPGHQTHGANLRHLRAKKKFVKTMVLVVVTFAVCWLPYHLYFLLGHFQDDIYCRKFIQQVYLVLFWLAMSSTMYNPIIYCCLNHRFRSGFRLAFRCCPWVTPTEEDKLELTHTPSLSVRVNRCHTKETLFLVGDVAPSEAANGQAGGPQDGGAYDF
Description: The ability of a compound of the invention to antagonize the action of the agonist [β-ala8] […] Male New Zealand white rabbits are euthanized via i.v. injection into the ear vein with 60 mg/kg Nembutal (50 mg/mL). Preceding the Nembutal into the vein is Heparin (1000 units/mL) at 0.0025 mL/kg for anticoagulant purposes. The chest cavity is opened from the top of the rib cage to the sternum and a small incision is made into the heart so that the left and right pulmonary arteries can be cannulated with polyethylene tubing (PE260 and PE190 respectively). […] Responses are measured on a Grass polygraph via Grass FT-03 transducers. […]
Percent inhibition is determined when a tested compound produces a statistically significant (p < 0.05) reduction of the total contraction which is calculated using the total contraction of the BaCl2 as 100%. Potencies of the compounds are determined by calculating the apparent dissociation constants (KB) for each concentration tested using the standard equation: KB = [antagonist]/ (dose ratio - 1) [formula] where dose ratio = antilog[(agonist -log molar EC50 without compound) - (-log molar EC50 with compound)]. The KB values may be converted to the negative logarithms and expressed as -log molar KB (i.e. pKB). […] The EC50 values are converted to negative logarithms and expressed as -log molar EC50.

NK1 receptor = NK1 receptor (Oryctolagus cuniculus, UniProt G1SEI7); assay: Rabbit Pulmonary Artery: NK1 in vitro functional assay (Test C); type: cell-based; details: antagonism of agonist ASMSP, -log molar apparent dissociation constant KB
Description: Rabbit Pulmonary Artery: NK1 in vitro functional assay (Test C) […] Male New Zealand white rabbits are euthanized via i.v. injection into the ear vein with 60 mg/kg Nembutal (50 mg/mL). Preceding the Nembutal into the vein is Heparin (1000 units/mL) at 0.0025 mL/kg for anticoagulant purposes. The chest cavity is opened from the top of the rib cage to the sternum and the heart, lungs and part of the trachea are removed. The pulmonary arteries are isolated from the rest of the tissues and cut in half to serve as pairs. […] Responses are measured on a Grass polygraph via Grass FT-03 transducers. […] Percent inhibition is determined when a tested compound produces a statistically significant (p < 0.05) reduction of the total relaxation which is calculated using the total relaxation of the Papaverine as 100%. Potencies of the compounds are determined by calculating the apparent dissociation constants (KB) for each concentration tested using the standard equation: KB= [antagonist]/ (dose ratio - 1) [formula] where dose ratio = antilog[(agonist -log molar EC50 without compound) - (-log molar EC50 with compound)]. The KB values may be converted to the negative logarithms and expressed as -log molar KB (i.e. pKB). […] The EC50 values are converted to negative logarithms and expressed as -log molar EC50.

NK1 receptor, sequence (G1SEI7 1-407): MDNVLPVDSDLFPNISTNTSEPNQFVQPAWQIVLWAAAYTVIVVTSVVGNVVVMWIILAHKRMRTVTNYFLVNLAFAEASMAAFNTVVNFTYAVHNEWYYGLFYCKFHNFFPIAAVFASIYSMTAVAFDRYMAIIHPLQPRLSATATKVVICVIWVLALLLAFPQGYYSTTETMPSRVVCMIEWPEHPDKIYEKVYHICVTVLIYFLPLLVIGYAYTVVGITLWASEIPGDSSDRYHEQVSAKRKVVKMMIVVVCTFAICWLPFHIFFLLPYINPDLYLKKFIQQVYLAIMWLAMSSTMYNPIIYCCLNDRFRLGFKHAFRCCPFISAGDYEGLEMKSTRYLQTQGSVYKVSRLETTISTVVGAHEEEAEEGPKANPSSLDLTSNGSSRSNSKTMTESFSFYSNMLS

Kb (NK2 receptor) [nM] | NK1 pKb (Test C) (NK1 receptor) | SMILES
50.1 | 9.5 | COc1c(C#N)cc2ccccc2c1C(=O)N(C)C[C@@H](CCN1CCC(c2ccccc2[S@+](C)[O-])CC1)c1ccc(Cl)c(Cl)c1.O=C(O)CC(O)(CC(=O)O)C(=O)O [Example 1, N-[(S)-2-(3,4-Dichlorophenyl)-4-[4-[(S)-2-methylsulfinylphenyl]-1-piperidinyl]butyl]-N-methyl-2-methoxy-3-cyano-1-naphthamide citrate]
50.1 | 9.6 | CCc1c(C#N)cc2ccccc2c1C(=O)N(C)C[C@@H](CCN1CCC(c2ccccc2[S@+](C)[O-])CC1)c1ccc(Cl)c(Cl)c1.O=C(O)CC(O)(CC(=O)O)C(=O)O [Example 18, N-[(S)-2-(3,4-Dichlorophenyl)-4-[4-[(S)-2-methylsulfinylphenyl]-1-piperidinyl]butyl]-N-methyl-3-cyano-2-ethyl-1-naphthamide citrate]
